# Source: paper PMC12566971, “Polyprenylated Acylphloroglucinols from Hypericum rochelii and Hypericum olympicum—Cytotoxic Effects on Non-Tumorigenic Cell Lines and Antibacterial Potential” (Pharmaceuticals, 2025)
# Legend:
# Experiment in all cases: MIC and MBC evaluation (broth microdilution, agar plate assay)
# [1] = test system: Methicillin-Resistant S. aureus (MRSA); type: cell-based, Staphylococcus aureus
# Description: (§1) The MIC and MBC assessment on the pathogenic bacteria and the candidate probiotic lactic acid bacteria was carried out by the broth microdilution assay (BMD) and the agar plate assay, respectively, as described in [4]. The metabolic (dehydrogenase) activity of the lactic acid bacteria was assessed as described in [4].
# (§2) P. aeruginosa PAO1 ATCC 15692 was purchased from the American Type Cell Culture Collection (ATCC, Manassas, VA, USA). S. mutans DSM 20523 was bought from the German Collection of Microorganisms and Cell Cultures (DSMZ GmbH, Braunschweig, Germany). All other bacteria and strains were purchased as described in [4].
# Enterococcus faecalis = type: cell-based; settings: for MBC/MIC ratio, E. faecalis: bactericidal if ≤ 4, bacteriostatic if > 4
# Description: as §1, §2
# Staphylococcus aureus = type: cell-based
# Description: as §1, §2
# [2] = test system: Pseudomonas aeruginosa PAO1; type: cell-based; settings: Pseudomonas aeruginosa, PAO1
# Description: as §1, §2
# Streptococcus mutans = type: cell-based
# Description: as §1, §2
# Streptococcus pyogenes = type: cell-based
# Description: as §1, §2
# [3] = bactericidal if ≤ 4, bacteriostatic if > 4
Compound,"MBC ([1]; Staphylococcus aureus, MRSA)","MBC/MIC ratio, MRSA [1, 3]",MBC (Enterococcus faecalis; Enterococcus faecalis),"MBC/MIC ratio, E. faecalis (Enterococcus faecalis)","MBC (Staphylococcus aureus; Staphylococcus aureus, read-out: Minimal bactericidal concentration (MBC), Staphylococcus aureus)","MBC/MIC ratio, S. aureus (Staphylococcus aureus; [3])",MBC [2],MIC [2],"MBC, Enterococcus faecalis (Enterococcus faecalis)",MBC for S. mutans (Streptococcus mutans),MIC for S. mutans (Streptococcus mutans),"MBC/MIC ratio, Streptococcus mutans (Streptococcus mutans; [3])","MBC, Streptococcus pyogenes (Streptococcus pyogenes)","MBC/MIC ratio, S. pyogenes (Streptococcus pyogenes; [3])"
"CNC(C)C1CCC(N)C(OC2C(N)CC(N)C(OC3OCC(C)(O)C(NC)C3O)C2O)O1 (stereo not drawn) [Gentamicin, reference compound]",2.5 µg/mL,20,72 µg/mL,9,1.9 µg/mL,8 ^5,,,,,,,,
"C[C@@H](O)[C@H]1C(=O)N2C(C(=O)O)=C(S[C@@H]3CN[C@H](C(=O)N(C)C)C3)[C@H](C)[C@H]12 [Meropenem, reference compound]",,,,,,,6.4 µg/mL,1.6 µg/mL,,,,,,
Penicillin [reference compound],,,,8,,,,,20 µg/mL,2 µg/mL,0.03 µg/mL,66,0.25 µg/mL,3
